Consider 39 compounds from US20230174488A1 (priority 2020, published 2023).

Where two headings read alike, the source gives them in different places.

Experiment [1] concerns the target SARS-CoV-2 M^PRO (Severe acute respiratory syndrome coronavirus 2, UniProt P0DTD1). As to the kind of experiment: biochemical. In kind it is biochemical.
Experiment [2] deals with SARS-CoV-2. As to the kind of experiment: In vitro antiviral cell-based assay (live SARS-CoV-2 IFA) in Vero cells. To be noted: Severe acute respiratory syndrome coronavirus 2, MOI ~0.0125, 24 hpi.
Setting [3] is: In vitro potency data, 30 min pre-incubation, 25 nM M^pro, 25 µM substrate, read-out: IC50.

The IC50 is the point on the concentration scale where inhibition reaches its midpoint. The term EC50 denotes the concentration that produces a half-maximal response. Low values mean greater potency, high ones weaker potency. Regarding `O=C(NC1CCC(F)(F)CC1)C(c1cncnc1)N(C(=O)CCl)c1ccc(-c2cncs2)cc1` (single isomer, unassigned) [2-Chloro-N-(2-((4,4-difluorocyclohexyl)amino)-2-oxo-1-(pyrimidin-5-yl)ethyl)-N-(4-(thiazol-5-yl)phenyl)acetamide], the IC50 turned out to be 50 nM in experiment [1] (setting [3]) and 50 nM in experiment [1] (SARS-CoV-2 M^pro IC50′ nM, General summary table). In experiment [2], this compound returned a concentration for a half-maximal effect (EC50) of 11.4 µM.

With `O=C(NC1CCC(F)(F)CC1)C(c1cnccn1)N(C(=O)CCl)c1ccc(-c2ccns2)cc1` (stereo not drawn) [INSCoV-601I, 2-Chloro-N-(2-((4,4-difluorocyclohexyl)amino)-2-oxo-1-(pyrazin-2-yl)ethyl)-N-(4-(isothiazol-5-yl)phenyl)acetamide], the IC50 in experiment [1] (setting [3]) came out at 62 nM. Also, a half-maximal response in experiment [2] (EC50) required 11.1 µM.

As for `O=C(NC1CCC(F)(F)CC1)C(c1cnccn1)N(C(=O)CCl)c1ccc(-c2cncs2)cc1` (stereo not drawn) [INSCoV-601G, 2-Chloro-N-(2-((4,4-difluorocyclohexyl)amino)-2-oxo-1-(pyrazin-2-yl)ethyl)-N-(4-(thiazol-5-yl)phenyl)acetamide], the IC50 in experiment [1] (setting [3]) worked out at 80 nM. Moreover, the midpoint of the response in experiment [2], the EC50, lay at 10.2 µM.

`CCN(CC)CCCC(C)Nc1ccnc2cc(Cl)ccc12` (stereo not drawn) [Chloroquine, chloroquine, reference compound] displayed an EC50 in experiment [2] of 7.35 µM.

As for `N#Cc1cc(OC(F)(F)F)ccc1N(C(=O)CCl)C(C(=O)NC1CCC(F)(F)CC1)c1cncnc1` (stereo not drawn) [INSCoV-517A, 2-chloro-N-(2-cyano-4-(trifluoromethoxy)phenyl)-N-(2-((4,4-difluorocyclohexyl)amino)-2-oxo-1-(pyrimidin-5-yl)ethyl)acetamide], the 50% inhibitory concentration (IC50) in experiment [1] (setting [3]) is 90 nM. The same compound returned an EC50 in experiment [2] of 11.1 µM.

`O=C(NC1CCC(F)(F)CC1)C(c1cncnc1)N(C(=O)CCl)c1ccc(-c2cncs2)cc1` (stereo not drawn) [INSCoV-600K, 2-Chloro-N-(2-((4,4-difluorocyclohexyl)amino)-2-oxo-1-(pyrimidin-5-yl)ethyl)-N-(4-(thiazol-5-yl)phenyl)acetamide]: the IC50 in experiment [1] (setting [3]) is 78 nM. The concentration giving a half-maximal response (EC50) in experiment [2] was found to be 14.5 µM.

As to `CC(C)(C)c1ccc(N(C(=O)CCl)C(C)(C(=O)NC2CCCCC2)c2cccnc2)cc1` (stereo not drawn) [INSCoV-538A], in experiment [1] (setting [3]), the 50% inhibitory concentration (IC50) came to 900 nM.

For the compound `CC(C)(C)c1ccc(N(C(=O)CCl)C(C(=O)NC2CCCCC2)c2cccnc2)cc1` (stereo not drawn) [INSCoV-110A, 2-(4-tert-butyl-N-(2-chloroacetyl)anilino)-N-cyclohexyl-2-(3-pyridyl)acetamide], in experiment [1] (setting [3]), the half-maximal inhibitory concentration (IC50) came out at 1140 nM.

Turning to `O=C(NC1CC2(C1)CC(F)(F)C2)C(c1cncnc1)N(C(=O)CCl)c1ccc(-c2cnco2)cc1` (stereo not drawn) [INSCoV-600F], the IC50 in experiment [1] (setting [3]) was 530 nM.

`O=C(NC1CCC(F)(F)CC1)[C@@H](c1cncnc1)N(C(=O)[C@H](F)Cl)c1ccc(-c2ccno2)cc1` (single isomer, unassigned) [INSCoV-614A(2B), 2-Chloro-N-(2-((4,4-difluorocyclohexyl)amino)-2-oxo-1-(pyrimidin-5-yl)ethyl)-2-fluoro-N-(4-(isoxazol-5-yl)phenyl)acetamide]: the concentration for half-maximal inhibition (IC50) in experiment [1] (setting [3]) was found to be 9110 nM.

For the compound `CC(C)(C)NC(=O)C(c1cccnc1)N(C(=O)CCl)c1ccc(C(C)(C)C)cc1` (stereo not drawn) [INSCoV-534, N-(Tert-Butyl)-2-(N-(4-(Tert-Butyl)Phenyl)-2-Chloroacetamido)-2-(Pyridin-3-yl)Acetamide], the IC50 in experiment [1] (setting [3]) is 1280 nM.

For the compound `O=C(NC1CCN(S(=O)(=O)C2CC2)CC1)C(c1cnccn1)N(C(=O)CCl)c1ccc(-c2cnco2)cc1` (stereo not drawn) [INSCoV-501R, 2-Chloro-N-(2-((1-(Cyclopropylsulfonyl)Piperidin-4-yl)Amino)-2-Oxo-1-(Pyrazin-2-yl)Ethyl)-N-(4-(Oxazol-5-yl)Phenyl)Acetamide], the IC50 in experiment [1] (setting [3]) stood at 480 nM.

As to `Cc1ccc(CCN(C(=O)CCl)C(C(=O)NC2CCCCC2)c2cccnc2)cc1` (stereo not drawn) [INSCoV-503C], the concentration for half-maximal inhibition (IC50) in experiment [1] (setting [3]) amounted to 1380 nM.

For the compound `O=C(NC1CCC(F)(F)CC1)[C@H](c1cncnc1)N(C(=O)CCl)c1ccc(-c2ccns2)cc1`, the 50% inhibitory concentration (IC50) in experiment [1] (setting [3]) was 190 nM.

As to `O=C(NC1CCC(F)(F)CC1)C(c1cncnc1)N(C(=O)[C@H]1CO1)c1ccc(-c2cnco2)cc1` (stereo partly drawn) [INSCoV-600R(1)], in experiment [1] (setting [3]), the IC50 stood at 19900 nM.

As to `CC(C)(C)c1ccc(N(C(=O)CCl)C(C(=O)NC2CCCCC2)c2cncnc2)cc1` (stereo not drawn) [INSCoV-536, N-(4-(Tert-Butyl)Phenyl)-2-Chloro-N-(2-(Cyclohexylamino)-2-Oxo-1-(Pyrimidin-5-yl)Ethyl)Acetamide], the IC50 in experiment [1] (setting [3]) was 620 nM.

Turning to `O=C(NC1CCCCC1)C(c1cccnc1)N(CCc1ccc(Cl)cc1)C(=O)CCl` (stereo not drawn) [INSCoV-503F], the IC50 in experiment [1] (setting [3]) is 940 nM.

Turning to `O=C(NCCc1ccccc1)C(c1cncnc1)N(C(=O)CCl)c1ccc(-c2cnco2)cc1` (stereo not drawn) [INSCoV-501E], in experiment [1] (setting [3]), the concentration for half-maximal inhibition (IC50) came out at 600 nM.

For the compound `O=C(NC1CCCCC1)C(c1cccnc1)N(C(=O)CCl)c1ccc(-c2cnco2)cc1` (stereo not drawn) [INSCoV-501], in experiment [1] (setting [3]), the IC50 is 680 nM.

Regarding `Cc1ccc(S(=O)(=O)CNC(=O)C(c2cnccn2)N(C(=O)CCl)c2ccc(-c3cnco3)cc2)cc1` (stereo not drawn) [INSCoV-501O, 2-Chloro-N-(4-(Oxazol-5-yl)Phenyl)-N-(2-Oxo-1-(Pyrazin-2-yl)-2-((Tosylmethyl)Amino)Ethyl)Acetamide], the concentration for half-maximal inhibition (IC50) in experiment [1] (setting [3]) was found to be 1500 nM.

On to `O=C(NC1CCS(=O)(=O)CC1)C(c1cncnc1)N(C(=O)CCl)c1ccc(-c2cnco2)cc1` (stereo not drawn) [INSCoV-501B, 2-Chloro-N-(2-((1,1-Dioxidotetrahydro-2H-Thiopyran-4-yl)Amino)-2-Oxo-1-(Pyrimidin-5-yl)Ethyl)-N-(4-(Oxazol-5-yl)Phenyl)Acetamide], for which the IC50 in experiment [1] (setting [3]) is 600 nM.

As to `O=C(NC1CCC(F)(F)CC1)C(c1cncnc1)N(C(=O)CCl)c1ccc(-c2ccncn2)cc1` (stereo not drawn) [INSCoV-600L, 2-(N-(2-chloroacetyl)-4-pyrimidin-4-yl-anilino)-N-(4,4-difluorocyclohexyl)-2-pyrimidin-5-yl-acetamide], the IC50 in experiment [1] (setting [3]) was determined as 450 nM.

On to `CCS(=O)(=O)N1CCC(NC(=O)C(c2cncnc2)N(C(=O)CCl)c2ccc(-c3cnco3)cc2)CC1` (stereo not drawn) [INSCoV-501H(1)], for which the IC50 in experiment [1] (setting [3]) came out at 630 nM.

Regarding `Cc1ccc(CN(C(=O)CCl)C(C(=O)NC2CCCCC2)c2cccnc2)cc1` (stereo not drawn) [INSCoV-502], the IC50 in experiment [1] (setting [3]) was 4820 nM.

In the case of `CC(C)(C)c1ccc(N(C(=O)CCl)C(C(=O)NC2CCCCC2)c2cncc(C#N)c2)cc1` (stereo not drawn) [INSCoV-539, N-(4-(Tert-Butyl)Phenyl)-2-Chloro-N-(1-(5-Cyanopyridin-3-yl)-2-(Cyclohexylamino)-2-Oxoethyl)Acetamide], the IC50 in experiment [1] (setting [3]) worked out at 800 nM.

As to `O=C(NC1CCN(S(=O)(=O)C2CC2)CC1)C(c1cncnc1)N(C(=O)CCl)c1ccc(-c2cnco2)cc1` (stereo not drawn) [INSCoV-501H], in experiment [1] (setting [3]), the 50% inhibitory concentration (IC50) came out at 720 nM.

Consider `Cc1cccc(CCN(C(=O)CCl)C(C(=O)NC2CCCCC2)c2cccnc2)c1` (stereo not drawn) [INSCoV-503B], for which, in experiment [1] (setting [3]), the IC50 was found to be 1000 nM.

As for `O=C(NC1CCCCC1)C(c1cccnc1)N(Cc1ccccc1C(F)(F)F)C(=O)CCl` (stereo not drawn) [INSCoV-574A, 2-Chloro-N-(2-(Cyclohexylamino)-2-Oxo-1-(Pyridin-3-yl)Ethyl)-N-(2-(Trifluoromethyl)Benzyl)Acetamide], in experiment [1] (setting [3]), the IC50 was found to be 4970 nM.

For the compound `CN(C)C(=O)C1CCCC(NC(=O)C(c2cncnc2)N(C(=O)CCl)c2ccc(-c3cnco3)cc2)C1` (stereo not drawn) [INSCoV-601CA], the concentration for half-maximal inhibition (IC50) in experiment [1] (setting [3]) amounted to 1150 nM.

Regarding `O=C(NC1CCOCC1)C(c1ccnnc1)N(C(=O)CCl)c1ccc(-c2cnco2)cc1` (stereo not drawn) [INSCoV-600A], the half-inhibitory concentration (IC50) in experiment [1] (setting [3]) was determined as 540 nM.

Consider `O=C(NC1CCCCC1)C(c1cccnc1)N(CCc1cccc(F)c1)C(=O)CCl` (stereo not drawn) [INSCoV-558, 2-Chloro-N-(2-(Cyclohexylamino)-2-Oxo-1-(Pyridin-3-yl)Ethyl)-N-(3-Fluorophenethyl)Acetamide], for which the IC50 in experiment [1] (setting [3]) was determined as 330 nM.

Consider `CC(C)(C)c1ccc(N(C(=O)CCl)C(C(=O)NC2CCCCC2)c2cccnc2)cc1` (single isomer, unassigned) [INSCoV-110A(2), 2-(4-tert-butyl-N-(2-chloroacetyl)anilino)-N-cyclohexyl-2-(3-pyridyl)acetamide], for which, in experiment [1] (setting [3]), the half-maximal inhibitory concentration (IC50) came out at 2150 nM.

For the compound `CN1CCC(NC(=O)C(c2cncnc2)N(C(=O)CCl)c2ccc(-c3cnco3)cc2)CC1` (stereo not drawn) [INSCoV-600M, 2-(N-(2-chloroacetyl)-4-oxazol-5-yl-anilino)-N-(1-methyl-4-piperidyl)-2-pyrimidin-5-yl-acetamide], the half-inhibitory concentration (IC50) in experiment [1] (setting [3]) worked out at 500 nM.

With `O=C(N[C@@H]1CCOC1)[C@@H](c1cncnc1)N(C(=O)CCl)c1ccc(-c2cnco2)cc1` [INSCoV-600C(2B)], the 50% inhibitory concentration (IC50) in experiment [1] (setting [3]) came to 160 nM.

For the compound `N#Cc1cc(OC(F)(F)F)ccc1N(C(=O)C(F)Cl)C(C(=O)NC1CCC(F)(F)CC1)c1cncnc1` (single isomer, unassigned) [INSCoV-517C(3), 2-Chloro-N-(2-cyano-4-(trifluoromethoxy)phenyl)-N-(2-((4,4-difluorocyclohexyl)amino)-2-oxo-1-(pyrimidin-5-yl)ethyl)-2-fluoroacetamide], in experiment [1] (setting [3]), the 50% inhibitory concentration (IC50) turned out to be 70 nM.

Consider `CC(C)(C)c1ccc(N(C(=O)CCl)C(C(=O)NC2CCCCC2)c2c[nH]c3ncccc23)cc1` (stereo not drawn) [INSCoV-549], for which the IC50 in experiment [1] (setting [3]) was 2490 nM.

With `O=C(NC1CCC(F)(F)CC1)[C@@H](c1cncnc1)N(C(=O)[C@H](F)Cl)c1ccc(-c2ccno2)cc1` (single isomer, unassigned) [INSCoV-614A(1B), 2-Chloro-N-(2-((4,4-difluorocyclohexyl)amino)-2-oxo-1-(pyrimidin-5-yl)ethyl)-2-fluoro-N-(4-(isoxazol-5-yl)phenyl)acetamide], in experiment [1] (setting [3]), the IC50 was 5050 nM.

As for `O=C(NC1CCC(F)(F)CC1)C(c1cncnc1)N(C(=O)C(F)Cl)c1ccc(-c2cncs2)cc1` (stereo not drawn) [INSCoV-614, 2-Chloro-N-(2-((4,4-difluorocyclohexyl)amino)-2-oxo-1-(pyrimidin-5-yl)ethyl)-2-fluoro-N-(4-(thiazol-5-yl)phenyl)acetamide], the IC50 in experiment [1] (setting [3]) is 330 nM.

Consider `O=C(N[C@H]1CCOC1)[C@@H](c1cncnc1)N(C(=O)CCl)c1ccc(-c2cnco2)cc1` [INSCoV-600C(1A)], for which the IC50 in experiment [1] (setting [3]) turned out to be 340 nM.
